# Results taken from patent US11230533B2, “Crystalline salts and polymorphs of a P2X3 antagonist” (Afferent Pharmaceuticals, Inc., priority 2016, dated 2022).
# Where two headings read alike, the source gives them in different places.
# Assay: Approximate solubility by solvent addition
# Type: physicochemical
# Protocol: Solubilities are calculated based on the total solvent used to give a solution; actual solubilities may be greater because of the volume of the solvent portions used or a slow rate of dissolution. Values are rounded to the nearest whole number.
# Solubilities are calculated based on the total solvent used to give a solution; actual solubilities may be greater because of the volume of the solvent portions used or a slow rate of dissolution. Values are rounded to the nearest whole number. […] If dissolution occurred as determined by the visual assessment after the addition of the first aliquot, the value is reported as “>”.
smiles,measurement,setting,value
"COc1cc(C(C)C)c(Oc2cnc(N)nc2N)cc1S(N)(=O)=O [Compound A Free Base Form A, 5-(2,4-diamino-pyrimidin-5-yloxy)-4-isopropyl-2-methoxy-benzenesulfonamide]",solubility,"aqueous with cosolvent or surfactant or cyclodextrin, thermodynamic from solid, solvent acetone/water 50:50 (v/v), read-out: Solubility",< 1000 µg/mL
same,solubility,"organic solvent or mixture, thermodynamic from solid, solvent ACN/water 90:10 (v/v), read-out: Solubility",1000 µg/mL
same,solubility,"organic solvent or mixture, thermodynamic from solid, solvent ACN, read-out: Solubility",< 2000 µg/mL
same,solubility,"organic solvent or mixture, thermodynamic from solid, solvent DMSO, read-out: Solubility",20000 µg/mL
same,solubility,"organic solvent or mixture, thermodynamic from solid, solvent EtOAc, read-out: Solubility",< 1000 µg/mL
same,solubility,"organic solvent or mixture, thermodynamic from solid, solvent EtOH, read-out: Solubility",< 1000 µg/mL
same,solubility,"organic solvent or mixture, thermodynamic from solid, solvent MeOH, read-out: Solubility",1000 µg/mL
same,solubility,"organic solvent or mixture, thermodynamic from solid, solvent TFE, read-out: Solubility",2000 µg/mL
same,solubility,"organic solvent or mixture, thermodynamic from solid, solvent acetone, read-out: Solubility",< 1000 µg/mL
same,solubility,"solvent water, ambient temperature",<1000 µg/mL
same,solubility,"thermodynamic from solid, solvent water, ambient temperature, read-out: Solubility",< 1000 µg/mL
